Source: BindingDB's records for doi:10.1021/jm900095y (National Institute On Drug Abuse-Intramural Research Program, 2009)

Assay: Agonist activity at human D3 receptor expressed in HEK293 cells assessed as stimulation of mitogenesis

EC50	Structure (SMILES)
84 nM	O=C(NCCC(O)CN1CCN(c2cccc(Cl)c2Cl)CC1)c1cc2cc(I)ccc2o1 (centres undefined)
22.8 nM	O=C(NCCC(O)CN1CCN(c2cccc(Cl)c2Cl)CC1)c1cc2ccccc2o1 (centres undefined)

Assay: Antagonist activity at human D3 receptor expressed in HEK293 cells assessed as inhibition of quinpirole-stimulated mitogenesis

Structure (SMILES)	IC50
O=C(NCC(O)CCN1CCN(c2cccc(Cl)c2Cl)CC1)c1cc2ccccc2[nH]1 (centres undefined)	25.7 nM
COc1ccc2[nH]c(C(=O)NCCC(O)CN3CCN(c4ccccc4OC)CC3)cc2c1 (centres undefined)	1.58 nM
COc1ccc2[nH]c(C(=O)NCCC(O)CN3CCN(c4cccc(Cl)c4Cl)CC3)cc2c1 (centres undefined)	1.51 nM
COc1ccccc1N1CCN(CC(O)CCNC(=O)c2cc3cc(I)ccc3[nH]2)CC1 (centres undefined)	173 nM
O=C(NCCC(O)CN1CCN(c2cccc(Cl)c2Cl)CC1)c1cc2cc(I)ccc2[nH]1 (centres undefined)	38 nM
COc1ccccc1N1CCN(CC(O)CCNC(=O)c2cc3cc(F)ccc3[nH]2)CC1 (centres undefined)	1.76 nM
CCCOc1ccccc1N1CCN(CC(O)CCNC(=O)c2cc3ccccc3[nH]2)CC1 (centres undefined)	6.51 nM

Other lines, results leading:

IC50	Structure (SMILES)
39.1 nM	COc1ccccc1N1CCN(CC(O)CCNC(=O)c2cc3ccccc3s2)CC1 (centres undefined)
14.5 nM	COc1ccccc1N1CCN(CC(O)CCNC(=O)c2cc3cc(I)ccc3o2)CC1 (centres undefined)
11.2 nM	COc1ccccc1N1CCN(CC(O)CCNC(=O)c2cc3ccccc3o2)CC1 (centres undefined)
12.1 nM	COc1ccccc1N1CCN(CC(O)CCNC(=O)c2cc3ccccc3[nH]2)CC1 (centres undefined)
1.09 nM	COc1ccccc1N1CCN(C/C=C/CNC(=O)c2cc3ccccc3s2)CC1
14.9 nM	COc1ccccc1N1CCN(C/C=C/CNC(=O)c2cc3ccccc3o2)CC1
7 nM	O=C(NC/C=C/CN1CCN(c2cccc(Cl)c2Cl)CC1)c1cc2ccccc2[nH]1
22.9 nM	COc1ccccc1N1CCN(CCCCNC(=O)c2cc3cc(I)ccc3o2)CC1 [5-Iodo-benzofuran-2-carboxylic acid {4-[4-(2-methoxy-phenyl)-piperazin-1-yl]-butyl}-amide]
0.22 nM	COc1ccccc1N1CCN(CCCCNC(=O)c2cc3ccccc3s2)CC1 [Benzo[b]thiophene-2-carboxylic acid {4-[4-(2-methoxy-phenyl)-piperazin-1-yl]-butyl}-amide]
2.39 nM	COc1ccccc1N1CCN(CCCCNC(=O)c2cc3ccccc3o2)CC1 [Benzofuran-2-carboxylic acid {4-[4-(2-methoxy-phenyl)-piperazin-1-yl]-butyl}-amide]
